The melting point is the temperature, or range, at which the solid turns liquid.

Where a name gives a salt, the structure may show the parent alone.

One data set deals with PDE4. Put plainly: Inhibition of PDE4 activity ([3H]cAMP hydrolysis, cytosol from human neutrophils). As to conditions: 0.5 μM cAMP, Motapizone (1 μM) included to suppress PDE3 activity, 15 min at 37° C. Type of data set: biochemical. The method, then:
Method for Measuring Inhibition of PDE4 Activity
PDE4 activity was determined as described by Thompson et al. (Adv Cycl Nucl Res 10: 69-92, 1979) with some modifications (Bauer and Schwabe, Naunyn-Schmiedeberg's Arch Pharmacol 311: 193-198, 1980). At a final assay volume of 200 μl (96 well microtiter plates) the assay mixture contained 20 mM Tris (pH 7.4), 5 mM MgCl2, 0.5 μM cAMP, [^3H]cAMP (about 30,000 cpm/assay), the test compound and an aliquot of cytosol from human neutrophils which mainly contains PDE4 activity as described by Schudt et al. (Naunyn-Schmiedeberg's Arch Pharmacol 344: 682-690, 1991); the PDE3-specific inhibitor Motapizone (1 μM) was included to suppress PDE3 activity originating from contaminating platelets. Serial dilutions of the compounds were prepared in DMSO and further diluted 1:100 (v/v) in the assays to obtain the desired final concentrations of the inhibitors at a DMSO concentration of 1% (v/v) which by itself only slightly affected PDE4 activity.
After preincubation for 5 min at 37° C., the reaction was started by the addition of substrate (cAMP) and the assays were incubated for further 15 min at 37° C. 50 μl of 0.2 N HCl was added to stop the reaction and the assays were left on ice for about 10 min. Following incubation with 25 μg 5′-nucleotidase (Crotalus atrox snake venom) for 10 min at 37° C., the assays were loaded on QAE Sephadex A-25 (1 ml bed volume). The columns were eluted with 2 ml of 30 mM ammonium formiate (pH 6.0) and the eluate was counted for radioactivity. Results were corrected for blank values (measured in the presence of denatured protein) which were below 5% of total radioactivity. […] The IC50 -values for the compounds according to the invention for the inhibition of the PDE4 activity were determined from the concentration-inhibition curves by nonlinear-regression.
The inhibitory values determined for the compounds according to the invention follow from the following table A, in which the numbers of the compounds correspond to the numbers of the examples.
Consider `COc1ccc(C2=NN(C3CCN(Cc4ccccn4)CC3)C(=O)[C@@H]3CC=CC[C@H]23)cc1OC.Cl.Cl` [compound 24, (4aS,8aR)-4-(3,4-Dimethoxy-phenyl)-2-(1-pyridin-2-ylmethyl-piperidin-4-yl)-4a,5,8,8a-tetrahydro-2H-phthalazin-1-one dihydrochloride], for which the “Inhibition of PDE4 acitivity [measured as -logIC50 (mol/l)]” value is 10.63.
On the same count and under the same terms, with `COc1ccc(C2=NN(C3CCN(C(=O)N4CCOCC4)CC3)C(=O)[C@@H]3CC=CC[C@H]23)cc1OC` [compound 13, (4aS,8aR)-4-(3,4-Dimethoxyphenyl)-2-[1-(morpholine-4-carbonyl)-piperidin-4-yl]-4a,5,8,8a-tetrahydro-2H-phthalazin-1-one] the figure was 10.03.
With `COc1ccc(C2=NN(C3CCN(c4ccc([N+](=O)[O-])cc4)CC3)C(=O)[C@@H]3CC=CC[C@H]23)cc1OC` [compound 11, (4aS,8aR)-4-(3,4-Dimethoxyphenyl)-2-[1-(4-nitro-phenyl)-piperidin-4-yl]-4a,5,8,8a-tetrahydro-2H-phthalazin-1-one], the “Inhibition of PDE4 acitivity [measured as -logIC50 (mol/l)]” value is 10.34.
On the same count and under the same terms, for `CCN1CCN(C(=O)N2CCC(N3N=C(c4ccc(OC)c(OC)c4)[C@H]4CC=CC[C@H]4C3=O)CC2)C(=O)C1=O` [compound 29, 1-(1-{4-[(4aS,8aR)-4-(3,4-Dimethoxyphenyl)-1-oxo-4a,5,8,8a-tetrahydro-1H-phthalazin-2-yl]-piperidin-1-yl}-methanoyl)-4-ethyl-piperazine-2,3-dione] the value was 10.87.
Same read-out and setting: with `COc1ccc(C2=NN(C3CCN(S(=O)(=O)c4cccc5c(N(C)C)cccc45)CC3)C(=O)[C@@H]3CC=CC[C@H]23)cc1OC` [compound 10, (4aS,8aR)-4-(3,4-Dimethoxyphenyl)-2-[1-(5-dimethylamino-naphthalene-1-sulfonyl)-piperidin-4-yl]-4a,5,8,8a-tetrahydro-2H-phthalazin-1-one] the figure was 9.57; with `COc1ccc(C2=NN(C3CCN(c4ncnc5sccc45)CC3)C(=O)[C@@H]3CC=CC[C@H]23)cc1OC` [compound 16, (4aS,8aR)-4-(3,4-Dimethoxyphenyl)-2-(1-thieno[2,3-d]pyrimidin-4-yl-piperidin-4-yl)-4a,5,8,8a-tetrahydro-2H-phthalazin-1-one], 10.50; with `COc1ccc(C2=NN(C3CCN(CC(=O)NC(C)C)CC3)C(=O)C3CC=CCC23)cc1OC` [compound 27, 2-{4-[(4aS,8aR)-4-(3,4-Dimethoxyphenyl)-1-oxo-4a,5,8,8a-tetrahydro-1H-phthalazin-2-yl]-piperidin-1-yl}-2H-isopropyl-acetamide], 10.37.
Same read-out and setting: with `COc1ccc(C2=NN(C3CCN(C(=O)NC(C)(C)C)CC3)C(=O)[C@@H]3CC=CC[C@H]23)cc1OC` [compound 8, 4-[(4aS,8aR)-4-(3,4-Dimethoxyphenyl)-1-oxo-4a,5,8,8a-tetrahydro-1H-phthalazin-2-yl]-piperidine-1-carboxylic acid tert-butylamide] the figure was 10.18; with `COc1ccc(C2=NN(C3CCN(Cc4ccc(-c5csnn5)cc4)CC3)C(=O)[C@@H]3CC=CC[C@H]23)cc1OC.Cl.Cl` [compound 28, (4aS,8aR)-4-(3,4-Dimethoxyphenyl)-2-[1-(4-1,2,3-thiadiazol-4-yl-benzyl)-piperidin-4-yl]-4a,5,8,8a-tetrahydro-2H-phthalazin-1-one dihydrochloride], 10.24.
For the molecule `COc1ccc(C2=NN(C3CCN(Cc4cccnc4)CC3)C(=O)[C@@H]3CC=CC[C@H]23)cc1OC.Cl.Cl` [compound 23, (4aS,8aR)-4-(3,4-Dimethoxyphenyl)-2-(1-pyridin-3-ylmethyl-piperidin-4-yl)-4a,5,8,8a-tetrahydro-2H-phthalazin-1-one dihydrochloride], the “Inhibition of PDE4 acitivity [measured as -logIC50 (mol/l)]” value turned out to be 10.80.
Regarding `COc1ccc(C2=NN(C3CCN(CCc4ccccc4)CC3)C(=O)[C@@H]3CC=CC[C@H]23)cc1OC.Cl` [compound 21, (4aS,8aR)-4-(3,4-Dimethoxyphenyl)-2-(1-phenethyl-piperidin-4-yl)-4a,5,8,8a-tetrahydro-2H-phthalazin-1-one hydrochloride], the “Inhibition of PDE4 acitivity [measured as -logIC50 (mol/l)]” value was determined as 9.69.
For `COc1ccc(C2=NN(C3CCN(c4ncccn4)CC3)C(=O)[C@@H]3CC=CC[C@H]23)cc1OC` [compound 17, (4aS,8aR)-4-(3,4-Dimethoxyphenyl)-2-(1-pyrimidin-2-yl-piperidin-4-yl)-4a,5,8,8a-tetrahydro-2H-phthalazin-1-one], the “Inhibition of PDE4 acitivity [measured as -logIC50 (mol/l)]” value is reported as 10.51.
Same read-out and setting: for `CCOc1ccc(C2=NN(C3CCN(C(=O)Nc4ccccc4)CC3)C(=O)[C@@H]3CC=CC[C@H]23)cc1OCC` [compound 7, 4-[(4aS,8aR)-4-(3,4-Diethoxyphenyl)-1-oxo-4a,5,8,8a-tetrahydro-1H-phthalazin-2-yl]-piperidine-1-carboxylic acid phenylamide] the value was 10.28; for `CCOc1ccc(C2=NN(C3CCN(C(=O)CN4CCOCC4)CC3)C(=O)[C@@H]3CC=CC[C@H]23)cc1OCC.Cl` [compound 25, (4aS,8aR)-4-(3,4-Diethoxyphenyl)-2-[1-(2-morpholin-4-yl-ethanoyl)-piperidin-4yl]-4a,5,8,8a-tetrahydro-2H-phthalazin-1-one hydrochloride], 10.19; for `CCOc1ccc(C2=NN(C3CCN(C(=O)N4CCOCC4)CC3)C(=O)[C@@H]3CC=CC[C@H]23)cc1OCC` [compound 22, (4aS,8aR)-4-(3,4-Diethoxyphenyl)-2-[1-(morpholine-4-carbonyl)-piperidin-4-yl]-4a,5,8,8a-tetrahydro-2H-phthalazin-1-one], 9.37.
The same measure, in the same setting: for `COc1ccc(C2=NN(C3CCN(C(=O)NC(C)(C)C)CC3)C(=O)[C@H]3CC=CC[C@@H]23)c2c1OC(C)(C)C2` (relative stereo) [compound 9, (cis)-4-[4-(7-Methoxy-2,2-dimethyl-2,3-dihydro-benzofuran-4-yl)-1-oxo-4a,5,8,8a-tetrahydro-1H-phthalazin-2-yl]-piperidine-1-carboxylic acid tert-butylamide] the value was 10.65.
On the same count and under the same terms, with `COc1ccc(C2=NN(C3CCN(CC(=O)N4CCOCC4)CC3)C(=O)[C@@H]3CC=CC[C@H]23)cc1OC.Cl` [compound 20, (4aS,8aR)-4-(3,4-Dimethoxyphenyl)-2-[1-(2-morpholin-4-yl-2-oxo-ethyl)-piperidin-4-yl]-4a,5,8,8a-tetrahydro-2H-phthalazin-1-one hydrochloride] the figure was 10.40; with `COc1ccc(C2=NN(C3CCN(CC(N)=O)CC3)C(=O)C3CC=CCC23)cc1OC` [compound 31, 2-{4-[(4aS,8aR)-4-(3,4-Dimethoxyphenyl)-1-oxo-4a,5,8,8a-tetrahydro-1H-phthalazin-2-yl]-piperidin-1-yl}-2H-acetamide hydrochloride], 9.20.

Tested on in a further data set: not given
Assay: not given
Conditions: not given
On to `COc1ccc(C2=NN(C3CCN(Cc4ccccn4)CC3)C(=O)[C@@H]3CC=CC[C@H]23)cc1OC.Cl.Cl` [compound 24, (4aS,8aR)-4-(3,4-Dimethoxy-phenyl)-2-(1-pyridin-2-ylmethyl-piperidin-4-yl)-4a,5,8,8a-tetrahydro-2H-phthalazin-1-one dihydrochloride], for which the melting point is 214 to 216 °C.
Same read-out and setting: for `COc1ccc(C2=NN(C3CCN(C(=O)N4CCOCC4)CC3)C(=O)[C@@H]3CC=CC[C@H]23)cc1OC` [compound 13, (4aS,8aR)-4-(3,4-Dimethoxyphenyl)-2-[1-(morpholine-4-carbonyl)-piperidin-4-yl]-4a,5,8,8a-tetrahydro-2H-phthalazin-1-one] the value was 184 to 185 °C; for `COc1ccc(C2=NN(C3CCN(c4ccc([N+](=O)[O-])cc4)CC3)C(=O)[C@@H]3CC=CC[C@H]23)cc1OC` [compound 11, (4aS,8aR)-4-(3,4-Dimethoxyphenyl)-2-[1-(4-nitro-phenyl)-piperidin-4-yl]-4a,5,8,8a-tetrahydro-2H-phthalazin-1-one], 196 to 197 °C.
Same read-out and setting: with `CCOc1ccc(C2=NN(C3CCN(C(=O)NC(C)(C)C)CC3)C(=O)[C@@H]3CC=CC[C@H]23)cc1OCC` [compound 6, 4-[(4aS,8aR)-4-(3,4-Diethoxyphenyl)-1-oxo-4a,5,8,8a-tetrahydro-1H-phthalazin-2-yl]-piperidine-1-carboxylic acid tert-butylamide] the figure was 145 to 148 °C; with `COc1ccc(C2=NN(C3CCN(c4ncnc5sccc45)CC3)C(=O)[C@@H]3CC=CC[C@H]23)cc1OC` [compound 16, (4aS,8aR)-4-(3,4-Dimethoxyphenyl)-2-(1-thieno[2,3-d]pyrimidin-4-yl-piperidin-4-yl)-4a,5,8,8a-tetrahydro-2H-phthalazin-1-one], 219 to 220 °C; with `CCOc1ccc(C2=NN(C3CCN(S(=O)(=O)c4ccc(C)cc4)CC3)C(=O)[C@@H]3CC=CC[C@H]23)cc1OCC` [compound 1, (4aS,8aR)-4-(3,4-Diethoxyphenyl)-2-[1-(toluene-4-sulfonyl)-piperidin-4-yl]-4a,5,8,8a-tetrahydro-2H-phthalazin-1-one], 99 to 101 °C.
The molecule `CCOc1ccc(C2=NN(C3CCN(C(=O)CCCC(=O)O)CC3)C(=O)[C@@H]3CC=CC[C@H]23)cc1OCC` [compound 4, 5-{4-[(4aS,8aR)-4-(3,4-Diethoxy-phenyl)-1-oxo-4a,5,8,8a-tetrahydro-1H-phthalazin-2-yl]-piperidin-1-yl}-5-oxo-pentanoic acid] showed a melting point of 133 to 135 °C.
`CCOc1ccc(C2=NN(C3CCN(C(=O)c4ccncc4)CC3)C(=O)[C@@H]3CC=CC[C@H]23)cc1OCC.Cl` gave a melting point of 66 to 68 °C.

The record behind these values is patent US7531540B2, “Phthalazinone-piperidino-derivatives as PDE4 inhibitors” (Nycomed GmbH, priority 2001, dated 2009).
